In patent US20060051754A1, “Transporter selectively transporting sulfate conjugate and its gene” (Japan Science and Technology Agency, priority 2002, published 2006):
Counter-ions that a name gives are not always drawn.

Experiments:
Assay type in all cases: cell-based
[1] = target: T1, human OAT7 (Homo sapiens, UniProt Q8IVM8); experiment: inhibition of [3H]estrone-sulfate conjugate uptake by OAT7-expressing oocyte (substrate selectivity); conditions: [3H]estrone-sulfate conjugate 1 μM, 100 μM of unlabeled compound; FIGS. 8, 9, 10A and 10B
T1 construct: expressed in transfected cells
T1 sequence (Q8IVM8 whole entry): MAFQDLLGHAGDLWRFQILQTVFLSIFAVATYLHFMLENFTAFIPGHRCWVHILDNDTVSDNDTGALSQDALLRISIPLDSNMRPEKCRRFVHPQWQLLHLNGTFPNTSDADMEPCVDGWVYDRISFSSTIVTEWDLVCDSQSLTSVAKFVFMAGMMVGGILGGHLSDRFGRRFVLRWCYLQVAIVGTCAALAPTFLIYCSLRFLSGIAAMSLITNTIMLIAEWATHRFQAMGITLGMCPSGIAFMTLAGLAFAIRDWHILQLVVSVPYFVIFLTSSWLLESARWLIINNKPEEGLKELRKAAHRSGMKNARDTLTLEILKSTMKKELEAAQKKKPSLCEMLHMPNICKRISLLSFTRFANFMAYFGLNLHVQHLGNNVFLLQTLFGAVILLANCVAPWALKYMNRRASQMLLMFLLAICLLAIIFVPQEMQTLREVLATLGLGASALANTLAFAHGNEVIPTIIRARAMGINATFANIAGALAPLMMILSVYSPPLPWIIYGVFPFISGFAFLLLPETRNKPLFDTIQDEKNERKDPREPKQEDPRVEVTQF
Experimental: (§1) A substrate uptake experiment was performed on the oocyte into which the human OAT7 gene cRNA was injected and a control oocyte into which water was injected, using the [^3H]estrone-sulfate conjugate and the [^3H]dehydroepiandrosterone-sulfate conjugate as the substrates in accordance with the method of Kanai et al. (Kanai and Hediger, Nature, Vol. 360, pp. 467 to 471, 1992) as described below. After leaving the oocyte in an ND96 solution (96 mM sodium chloride, 2 mM potassium chloride, 1.8 mM calcium chloride, 1 mM magnesium chloride, 5 mM HEPES, pH7.4) containing the [^3H]estrone-sulfate conjugate (50 nM) and the [^3H]dehydroepiandrosterone-sulfate conjugate (100 nM) as a substrate for 60 minutes, and an uptake ratio of the substrate was measured by way of counting radioactivity taken up into the cells.
In the [^3H]estrone-sulfate conjugate uptake experiment using an oocyte into which the human OAT7 gene cRNA was injected, the effect of addition of various organic anions and organic cations on the system was examined.
The [^3H]estrone-sulfate conjugate uptake experiment was conducted using the oocyte into which the human OAT7 gene cRNA was injected and in accordance with the method described in Example 2(1). In the experiment, [^3H]estrone-sulfate conjugate (1 μM) uptake was measured under the presence and the absence of 100 μM of various compounds (unlabeled).
Since OAT7 is the organic anion transporter existing in the liver, effects of various organic anions which are considered to be transported in the hepatic cells on the [^3H]estrone-sulfate conjugate uptake by way of OAT7 were examined.
In order to clarify which one of the sulfate conjugate, the glucuronide conjugate, the glutathione conjugate is accepted by OAT7, effects of various conjugate compounds on the [^3H]estrone-sulfate conjugate uptake were examined.

[2] = target: T1, human OAT7; experiment: substrate uptake experiment by oocyte into which the human OAT7 gene cRNA was injected
Experimental: After expressing the human OAT7 gene cRNA in an oocyte, [^3H]estrone-sulfate conjugate uptake and [^3H]dehydroepiandrosterone-sulfate conjugate uptake were measured.
After injecting 20 ng of the human OAT7 gene cRNA into the oocyte to be expressed, a 3-days culture was performed.
as §1
Time passage of the substrate uptake by the oocyte into which the human OAT7 gene cRNA was injected and a control oocyte into which water was injected was observed using the [^3H]estrone-sulfate conjugate (50 nM) as the substrate and in accordance with the method of Example 2(1).
The effect of salt added in the culture used in the [^3H]estrone-sulfate conjugate (50 nM) uptake experiment were examined using an oocyte into which the human OAT7 gene cRNA was injected and a control oocyte into which water was injected.
The [^3H]estrone-sulfate conjugate uptake experiment was conducted in accordance with the method described in Example 2(1) using the oocyte into which the human OAT7 gene cRNA was injected. In the experiment, a sodium ion free absorption solution (wherein 96 mM sodium chloride was substituted with 96 mM choline chloride) was used as an uptake solution in place of the standard absorption solution for the purpose of observing the effect of the sodium ion.

[3] = target: T1, human OAT7; experiment: Michaelis-Menten kinetics test on OAT7 (oocyte uptake); conditions: mean±standard error; OAT7-expressing oocyte; FIGS. 7A and 7B
Experimental: as §1
A Michaelis-Menten kinetics test on the liver specific organic anion transporter OAT7 selectively transporting a sulfate conjugate was conducted. The Michaelis-Menten kinetics test on OAT7 was performed by examining changes in uptake ratio of the substrate [^3H]estrone-sulfate conjugate and the [^3H]dehydroepiandrosterone-sulfate conjugate depending on the concentrations of the substrate [^3H]estrone-sulfate conjugate and the [^3H]dehydroepiandrosterone-sulfate conjugate. […]

Row | SMILES | cys-inhibition effect on [3H]estrone-sulfate conjugate uptake [1] | also measured
1 | Cc1cc(=O)oc2cc(OS(=O)(=O)O)ccc12 [4-methylumbelliferyl sulfate conjugate] | significant cys-inhibition effect | –
2 | C[C@]12CC[C@H](OS(=O)(=O)O)CC1=CC[C@@H]1[C@@H]2CC[C@]2(C)C(=O)CC[C@@H]12 [dehydroepiandrosterone-sulfate conjugate] | significant cys-inhibition effect | [3H]dehydroepiandrosterone-sulfate conjugate uptake by oocytes in which OAT7 was expressed vs control oocyte into which water was injected ([2]; substrate 100 nM, ND96 solution pH7.4, 60 minutes, FIG. 6A): significantly greater; Km [3]: 2.2 ± 0.3 µM
3 | C[C@]12CC[C@@H]3c4ccc(OS(=O)(=O)O)cc4CC[C@H]3[C@@H]1CCC2=O [estrone-sulfate conjugate] | significant cys-inhibition effect | [3H]estrone-sulfate conjugate uptake by oocytes in which OAT7 was expressed vs control oocyte into which water was injected ([2]; substrate 50 nM, ND96 solution pH7.4, 60 minutes, FIG. 6A): significantly greater; effect of change of extracellular sodium to choline on uptake ([2]; substrate 50 nM, 96 mM sodium chloride substituted with 96 mM choline chloride, FIG. 6C): no effect; time dependency of uptake by way of OAT7 ([2]; substrate 50 nM, FIG. 6B): increases substantially linearly in a time dependent manner till the passage of 120 minutes; Km [3]: 8.7 ± 1.1 µM
4 | CC1(C)C(/C=C/C=C/C=C/C=C2\N(CCCCS(=O)(=O)[O-])c3ccc4ccccc4c3C2(C)C)=[N+](CCCCS(=O)(=O)[O-])c2ccc3ccccc3c21.[Na+] [indocyanin green] | significant cys-inhibition effect | –
5 | N=c1nc(N2CCCCC2)cc(N)n1OS(=O)(=O)O [minoxidil-sulfate conjugate] | significant cys-inhibition effect | –
6 | O=[N+]([O-])c1ccc(OS(=O)(=O)O)cc1 [p-nitrophenol-sulfate conjugate] | significant cys-inhibition effect | –
7 | O=C1OC(c2ccc(O)c(S(=O)(=O)O)c2)(c2ccc(O)c(S(=O)(=O)O)c2)c2c(Br)c(Br)c(Br)c(Br)c21 [sulfobromophthalein] | significant cys-inhibition effect | –
8 | C[C@]12CC[C@@H]3c4ccc(OS(=O)(=O)O)cc4CC[C@H]3[C@@H]1CC[C@@H]2O [β-estradiol-sulfate conjugate] | significant cys-inhibition effect | –
